Test results from ChEMBL document CHEMBL1147165, “Synthesis and alpha(1)-adrenoceptor antagonist activity of derivatives and isosters of the furan portion of (+)-cyclazosin” (Bioorg Med Chem, 2007).

Experiments:
[1] = molecular target: Adrenergic receptors; alpha-1 A & B (Homo sapiens) (UniProt P35348+P35368); experiment: Selectivity ratio of pKi for human adrenergic alpha-1a receptor to pKi for human adrenergic alpha-1b receptor; type: protein assay
[2] = molecular target: T1, Alpha-1A adrenergic receptor (Rattus norvegicus) (UniProt P43140); experiment: (§1) Antagonist activity against adrenergic alpha-1A receptor in rat prostatic vas deferens assessed as inhibition of noradrenaline-induced contraction; type: functional, tissue-based
T1 sequence (whole entry): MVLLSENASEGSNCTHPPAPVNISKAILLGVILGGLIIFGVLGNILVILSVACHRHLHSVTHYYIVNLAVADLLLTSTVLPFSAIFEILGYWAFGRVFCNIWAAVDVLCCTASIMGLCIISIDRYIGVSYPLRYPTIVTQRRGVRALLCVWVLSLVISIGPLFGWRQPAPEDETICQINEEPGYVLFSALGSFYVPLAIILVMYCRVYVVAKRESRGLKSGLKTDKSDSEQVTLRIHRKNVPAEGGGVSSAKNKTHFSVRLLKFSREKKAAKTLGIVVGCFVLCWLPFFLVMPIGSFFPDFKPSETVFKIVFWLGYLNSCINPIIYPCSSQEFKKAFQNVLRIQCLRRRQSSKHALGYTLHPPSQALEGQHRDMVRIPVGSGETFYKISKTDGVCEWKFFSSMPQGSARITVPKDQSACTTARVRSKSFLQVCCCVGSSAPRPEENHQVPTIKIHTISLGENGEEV

[3] = molecular target: T2, Alpha-1B adrenergic receptor (Rattus norvegicus) (UniProt P15823); experiment: (§2) Antagonist activity against adrenergic Alpha-1B receptor in rat spleen assessed as inhibition of phenylephrine-induced response; type: functional, tissue-based
T2 sequence (whole entry): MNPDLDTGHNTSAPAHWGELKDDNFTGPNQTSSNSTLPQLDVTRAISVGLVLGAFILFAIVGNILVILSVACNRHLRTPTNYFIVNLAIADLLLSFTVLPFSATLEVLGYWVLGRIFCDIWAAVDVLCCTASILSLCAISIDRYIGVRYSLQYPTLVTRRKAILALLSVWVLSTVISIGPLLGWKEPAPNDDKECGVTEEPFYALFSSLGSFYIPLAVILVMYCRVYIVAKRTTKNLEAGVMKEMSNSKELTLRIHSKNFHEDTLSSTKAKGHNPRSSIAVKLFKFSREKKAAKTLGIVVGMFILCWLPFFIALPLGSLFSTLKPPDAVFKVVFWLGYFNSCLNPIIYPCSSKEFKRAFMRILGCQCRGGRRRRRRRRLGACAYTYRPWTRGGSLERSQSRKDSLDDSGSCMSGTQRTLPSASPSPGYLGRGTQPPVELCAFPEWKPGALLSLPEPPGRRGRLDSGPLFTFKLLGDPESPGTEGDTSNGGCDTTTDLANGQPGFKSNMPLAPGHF

[4] = molecular target: T3, Alpha-1B adrenergic receptor (Homo sapiens, UniProt P35368); experiment: Displacement of [3H]prazosin from human adrenergic alpha-1b receptor expressed in CHO cells; type: cell-based
T3 sequence (P35368 whole entry): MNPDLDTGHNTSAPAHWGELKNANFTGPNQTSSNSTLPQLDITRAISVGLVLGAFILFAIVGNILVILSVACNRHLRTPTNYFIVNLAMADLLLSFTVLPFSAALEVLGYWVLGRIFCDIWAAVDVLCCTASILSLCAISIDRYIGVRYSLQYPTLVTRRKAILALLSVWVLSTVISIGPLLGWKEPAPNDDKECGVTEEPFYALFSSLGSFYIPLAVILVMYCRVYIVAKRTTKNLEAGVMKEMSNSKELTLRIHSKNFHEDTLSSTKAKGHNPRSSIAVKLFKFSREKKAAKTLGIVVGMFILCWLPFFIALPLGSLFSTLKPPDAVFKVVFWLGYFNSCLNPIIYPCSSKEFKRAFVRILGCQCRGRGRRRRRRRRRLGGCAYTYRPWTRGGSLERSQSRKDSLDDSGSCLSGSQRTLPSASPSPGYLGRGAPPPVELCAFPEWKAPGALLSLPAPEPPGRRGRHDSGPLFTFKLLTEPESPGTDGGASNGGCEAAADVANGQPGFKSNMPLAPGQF

[5] = molecular target: T4, Alpha-1D adrenergic receptor (Homo sapiens, UniProt P25100); experiment: Displacement of [3H]prazosin from human adrenergic alpha-1d receptor expressed in CHO cells; type: cell-based
T4 sequence (P25100 whole entry): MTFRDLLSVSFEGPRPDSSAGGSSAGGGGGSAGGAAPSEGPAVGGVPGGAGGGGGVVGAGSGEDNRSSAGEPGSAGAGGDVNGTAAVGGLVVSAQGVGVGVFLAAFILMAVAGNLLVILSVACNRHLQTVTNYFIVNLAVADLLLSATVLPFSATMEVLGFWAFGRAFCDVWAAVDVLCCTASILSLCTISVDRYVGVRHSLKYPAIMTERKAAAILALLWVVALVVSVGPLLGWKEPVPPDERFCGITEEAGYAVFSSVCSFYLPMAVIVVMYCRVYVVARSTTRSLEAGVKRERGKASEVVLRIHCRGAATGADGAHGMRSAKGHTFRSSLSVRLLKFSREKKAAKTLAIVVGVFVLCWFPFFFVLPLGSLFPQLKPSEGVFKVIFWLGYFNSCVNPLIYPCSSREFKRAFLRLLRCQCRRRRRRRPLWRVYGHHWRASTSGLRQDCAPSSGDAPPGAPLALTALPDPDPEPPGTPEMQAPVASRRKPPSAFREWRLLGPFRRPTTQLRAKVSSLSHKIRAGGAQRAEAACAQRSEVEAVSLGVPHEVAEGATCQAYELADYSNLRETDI

[6] = molecular target: T5, Alpha-1D adrenergic receptor (Rattus norvegicus) (UniProt P23944); experiment: (§3) Antagonist activity against adrenergic Alpha-1D receptor in rat thoracic aorta assessed as noradrenaline-induced response; type: functional, tissue-based
T5 sequence (whole entry): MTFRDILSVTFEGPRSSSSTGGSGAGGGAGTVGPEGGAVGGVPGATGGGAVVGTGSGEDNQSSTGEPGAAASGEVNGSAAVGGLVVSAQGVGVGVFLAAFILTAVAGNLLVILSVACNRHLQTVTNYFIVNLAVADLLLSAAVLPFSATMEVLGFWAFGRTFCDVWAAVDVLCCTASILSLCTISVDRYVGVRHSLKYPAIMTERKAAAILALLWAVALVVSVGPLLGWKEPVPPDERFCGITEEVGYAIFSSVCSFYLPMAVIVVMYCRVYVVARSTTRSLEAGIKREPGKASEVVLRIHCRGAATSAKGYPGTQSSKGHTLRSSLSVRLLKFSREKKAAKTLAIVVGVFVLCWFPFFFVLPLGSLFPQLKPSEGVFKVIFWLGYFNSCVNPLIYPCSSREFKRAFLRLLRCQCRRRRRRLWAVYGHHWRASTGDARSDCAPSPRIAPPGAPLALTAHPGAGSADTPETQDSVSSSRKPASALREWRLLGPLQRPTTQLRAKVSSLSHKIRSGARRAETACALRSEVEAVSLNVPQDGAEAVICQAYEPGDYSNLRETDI

[7] = molecular target: Alpha adrenergic receptor 1A and 1D (Rattus norvegicus) (UniProt P23944+P43140); experiment: Selectivity ratio for rat adrenergic alpha-1A receptor over rat adrenergic Alpha-1D receptor; type: functional
Homo sapiens = species: Homo sapiens; experiment: Selectivity ratio of pKi for human adrenergic alpha-1d receptor to pKi for human adrenergic alpha-1b receptor
[8] = molecular target: Alpha adrenergic receptor 1A and 1B (Rattus norvegicus) (UniProt P15823+P43140); experiment: Selectivity ratio for rat adrenergic alpha-1A receptor over rat adrenergic Alpha-1B receptor; type: functional
[9] = molecular target: Alpha adrenergic receptor (1a and 1d) (Homo sapiens) (UniProt P35348+P25100); experiment: Selectivity ratio of pKi for human adrenergic alpha-1a receptor to pKi for human adrenergic alpha1d receptor; type: protein assay
[10] = molecular target: T6, Alpha-1A adrenergic receptor (Homo sapiens, UniProt P35348); experiment: Displacement of [3H]prazosin from human adrenergic alpha-1a receptor expressed in CHO cells; type: cell-based
T6 sequence (P35348 whole entry): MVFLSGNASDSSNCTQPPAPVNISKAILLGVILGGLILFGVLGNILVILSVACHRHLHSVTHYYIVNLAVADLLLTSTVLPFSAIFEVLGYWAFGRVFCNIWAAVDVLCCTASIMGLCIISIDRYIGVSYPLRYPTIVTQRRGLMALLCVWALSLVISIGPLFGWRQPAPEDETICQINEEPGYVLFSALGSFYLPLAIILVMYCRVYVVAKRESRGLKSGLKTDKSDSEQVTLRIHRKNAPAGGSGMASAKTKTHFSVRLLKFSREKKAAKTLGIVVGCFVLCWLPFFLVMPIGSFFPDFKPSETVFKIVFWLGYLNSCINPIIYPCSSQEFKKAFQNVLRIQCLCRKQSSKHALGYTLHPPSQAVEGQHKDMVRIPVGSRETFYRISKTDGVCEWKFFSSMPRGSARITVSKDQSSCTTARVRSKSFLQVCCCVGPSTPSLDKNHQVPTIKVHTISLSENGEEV

Rattus norvegicus = species: Rattus norvegicus; experiment: Selectivity ratio for rat adrenergic Alpha-1D receptor over rat adrenergic Alpha-1B receptor; type: functional
[11] = molecular target: T7, Alpha-1D adrenergic receptor (Rattus norvegicus, UniProt P23944); experiment: as §3; type: functional, tissue-based; details: read-out: pA2 (converted)
T7 sequence (P23944 whole entry): T5 sequence (whole entry)

[12] = molecular target: T8, Alpha-1A adrenergic receptor (Rattus norvegicus, UniProt P43140); experiment: as §1; type: functional, tissue-based; details: read-out: pA2 (converted)
T8 sequence (P43140 whole entry): T1 sequence (whole entry)

[13] = molecular target: T9, Alpha-1B adrenergic receptor (Rattus norvegicus, UniProt P15823); experiment: as §2; type: functional, tissue-based; details: read-out: pA2 (converted)
T9 sequence (P15823 whole entry): T2 sequence (whole entry)

## COc1cc2nc(N3CCN(C(=O)c4ccc[nH]4)[C@H]4CCCC[C@H]43)nc(N)c2cc1OC
[1]
  Selectivity ratio: 3
[2]
  pKb: 7.06
[3]
  pKb: 8.05
[4]
  Ki: 3.16 nM
[5]
  Ki: 1.51 nM
[6]
  pKb: 7.33
[7]
  Selectivity ratio: 2
Homo sapiens
  Selectivity ratio: 0.5
[8]
  Selectivity ratio: 10
[9]
  Selectivity ratio: 7
[10]
  Ki: 10.5 nM
Rattus norvegicus
  Selectivity ratio: 5

## COc1cc2nc(N3CCN(C(=O)c4cccs4)[C@H]4CCCC[C@H]43)nc(N)c2cc1OC
[1]
  Selectivity ratio: 18
[2]
  pKb: 7.44
[3]
  pKb: 8.78
[4]
  Ki: 0.24 nM
[5]
  Ki: 2.34 nM
[11]
  Kb: 35.5 nM
[7]
  Selectivity ratio: 1
Homo sapiens
  Selectivity ratio: 10
[8]
  Selectivity ratio: 22
[9]
  Selectivity ratio: 2
[10]
  Ki: 4.27 nM
Rattus norvegicus
  Selectivity ratio: 21

## COc1cc2nc(N3CCN(C(=O)c4ccc(C)o4)[C@H]4CCCC[C@H]43)nc(N)c2cc1OC
[1]
  Selectivity ratio: 27
[12]
  Kb: 331 nM
[13]
  Kb: 2.24 nM
[4]
  Ki: 0.871 nM
[5]
  Ki: 4.79 nM
[11]
  Kb: 91.2 nM
[7]
  Selectivity ratio: 4
Homo sapiens
  Selectivity ratio: 6
[8]
  Selectivity ratio: 148
[9]
  Selectivity ratio: 5
[10]
  Ki: 23.4 nM
Rattus norvegicus
  Selectivity ratio: 41

## COc1cc2nc(N3CCN(C(=O)c4ccc(C(C)=O)o4)[C@H]4CCCC[C@H]43)nc(N)c2cc1OC
[1]
  Selectivity ratio: 19
[2]
  pKb: 7.05
[3]
  pKb: 8.13
[4]
  Ki: 1.38 nM
[5]
  Ki: 7.41 nM
[11]
  Kb: 214 nM
[7]
  Selectivity ratio: 0.4
Homo sapiens
  Selectivity ratio: 5
[8]
  Selectivity ratio: 12
[9]
  Selectivity ratio: 4
[10]
  Ki: 25.7 nM
Rattus norvegicus
  Selectivity ratio: 29

## COc1cc2nc(N3CCN(C(=O)c4ccco4)[C@H]4CCCC[C@H]43)nc(N)c2cc1OC [CYCLAZOSIN]
[12]
  Kb: 17 nM
[3]
  pKb: 8.86
[4]
  Ki: 0.135 nM
[5]
  Ki: 3.24 nM
[10]
  Ki: 12.3 nM

## COc1cc2nc(N3CCN(C(=O)c4ccccc4)[C@H]4CCCC[C@H]43)nc(N)c2cc1OC
[1]
  Selectivity ratio: 8.5
[12]
  Kb: 30.9 nM
[3]
  pKb: 8.83
[4]
  Ki: 0.49 nM
[5]
  Ki: 3.24 nM
[6]
  pKb: 7.76
[7]
  Selectivity ratio: 2
Homo sapiens
  Selectivity ratio: 7
[8]
  Selectivity ratio: 21
[9]
  Selectivity ratio: 1
[10]
  Ki: 4.17 nM
Rattus norvegicus
  Selectivity ratio: 12

## COc1cc2nc(N3CCN(C(=O)c4ccccn4)[C@H]4CCCC[C@H]43)nc(N)c2cc1OC
[1]
  Selectivity ratio: 8
[2]
  pKb: 7.04
[3]
  pKb: 8.64
[4]
  Ki: 5.89 nM
[5]
  Ki: 26.9 nM
[6]
  pKb: 7.12
[7]
  Selectivity ratio: 1
Homo sapiens
  Selectivity ratio: 5
[8]
  Selectivity ratio: 40
[9]
  Selectivity ratio: 2
[10]
  Ki: 49 nM
Rattus norvegicus
  Selectivity ratio: 33

## COc1cc2nc(N3CCN(C(=O)c4ccc(Br)o4)[C@H]4CCCC[C@H]43)nc(N)c2cc1OC
[1]
  Selectivity ratio: 11
[2]
  pKb: 7.53
[3]
  pKb: 8.5
[4]
  Ki: 0.309 nM
[5]
  Ki: 1.55 nM
[11]
  Kb: 58.9 nM
[7]
  Selectivity ratio: 0.5
Homo sapiens
  Selectivity ratio: 5
[8]
  Selectivity ratio: 9
[9]
  Selectivity ratio: 2
[10]
  Ki: 3.47 nM
Rattus norvegicus
  Selectivity ratio: 19

## COc1ccc(C(=O)N2CCN(c3nc(N)c4cc(OC)c(OC)cc4n3)[C@@H]3CCCC[C@@H]32)o1
[1]
  Selectivity ratio: 32
[12]
  Kb: 141 nM
[3]
  pKb: 8.5
[4]
  Ki: 0.871 nM
[5]
  Ki: 3.63 nM
[11]
  Kb: 89.1 nM
[7]
  Selectivity ratio: 2
Homo sapiens
  Selectivity ratio: 4
[8]
  Selectivity ratio: 45
[9]
  Selectivity ratio: 8
[10]
  Ki: 27.5 nM
Rattus norvegicus
  Selectivity ratio: 28
